Test results published in publication PMC8626775, “Anti-schistosomal activities of quinoxaline-containing compounds: From hit identification to lead optimisation” (European Journal of Medicinal Chemistry, 2021).
Values joined by “and” are separate entries in the source; they are usually repeats but may differ in a detail not shown here. Equal values may be shown once. “Also recorded” adds a separate entry of the source. Read-outs that look alike come from different tables or passages of the source.

Tests used:
[1] = test system: S. mansoni schistosomula; assay: S. mansoni schistosomula high-throughput phenotype and motility screen (Roboworm), 72 h; type: cell-based, Schistosoma mansoni; details: for EC50: Schistosoma mansoni
In short: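 Newly transformed schistosomula (S. mansoni PR-1, mechanically transformed cercariae), 120 per well, exposed to compounds at a single concentration or two-fold titrations for 72 h at 37 °C, 5% CO2.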

[2] = test system: S. mansoni adult worms; assay: S. mansoni adult worm motility screen (WormassayGP2), 72 h; type: cell-based, Schistosoma mansoni; details: for EC50: Schistosoma mansoni
In short: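 Seven-week adult S. mansoni worms, perfused from infected mice, were exposed in duplicate (1–3 pairs/well) to […] compound in 0.5% DMSO for 72 h at 37 °C, 5% CO2. Motility was scored by image-based WormassayGP2, and eggs were counted afterwards.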

[3] = test system: S. mansoni miracidia; assay: S. mansoni miracidia to sporocyst transformation screen, 48 h; type: cell-based, Schistosoma mansoni
Text: Following hepatic portal vein perfusion of TO mice, experimentally infected 7 weeks previously, the mouse livers were collected to isolate parasite eggs. Briefly, the infected tissues were homogenised in double saline solution (1.7% w/v NaCl) using a Waring blender. The homogenates were passed through a 0.45 μm filter to retain egg material and the resulting filtered solution was collected in a volumetric flask. Miracidia hatching was induced by exposure of eggs to light in artificial river water (e.g. Lepple water). The resulting miracidial suspension was collected, washed with Chernin's balanced salt solution (CBSS) and enumerated prior to being used for in vitro miracidia to sporocyst screens, as previously described. […] Each treatment was set up in duplicate and parasites cultured in CBSS with 1% DMSO were set up as negative controls. After 48 h incubation at 26 °C, dead, fully transformed and partially transformed miracidia were enumerated as previously described [[18],[64], [65], [66]].

[4] = test system: adult S. japonicum male worms; assay: In vitro screening of S. japonicum adults at 100 nM (WormAssay motility, descriptors, severity score); type: cell-based, Schistosoma japonicum; design: key to DESCRIPTORS 48 h / DESCRIPTORS 72 h: Dark = dark; S = Slow; S-uncoord = uncoordinated slow movements; O-uncoord = uncoordinated fast movements; On sides = male worms are not adhering to dish with ventral sucker; Shrunk = worms are not flexing and are smaller than usual; Teg damage = outer surface (tegument of the worm) is damaged; Deg= degenerating; D = Dead; details: for Effect on S. japonicum adult male worms: 5, 24, 48 and 72 h; for SEVERITY SCORES 5 h / SEVERITY SCORES 24 h / SEVERITY SCORES 48 h / SEVERITY SCORES 72 h: max = 4, one line per replicate
Procedure: (§1) For each species, parasite recovery involved reverse perfusion of the hepatic portal and mesenteric system using DMEM (Fisher Scientific). Parasites were washed six times with Basch 169 medium supplemented with 100 U/ml penicillin and 100 μg/ml streptomycin before manually distributing approximately 5 males per well (on occasion 1 or 2 females might also be present) of a 24-well plate (Corning Costar 3524). […] The next morning, a final concentration of 100 nM compound (in 1 μL DMSO) was added to each well and the final volume made up to 2 ml with Basch 169 medium supplemented with antibiotics and FBS. Each compound was tested in triplicate (except for some instances tested in duplicate). […] The phenotypic characterisation of compound effects focused on male worms due to the greater range of their motility characteristics that include flexing, bending, stretching, sucker walking and adherence, compared to the more sedentary female worms. In addition to descriptors, WormAssay, as adapted for the schistosome, was used to measure average worm motility per well [72, 73].

[5] = test system: Adult S. haematobium worms; assay: In vitro screening of S. haematobium adults at 100 nM (WormAssay motility, descriptors, severity score); type: cell-based, Schistosoma haematobium; details: for Effect on S. haematobium adult worms: 5, 24, 48 and 72 h; for SEVERITY SCORES 5 h / SEVERITY SCORES 24 h / SEVERITY SCORES 48 h / SEVERITY SCORES 72 h: max = 4, one line per replicate
Procedure: as §1

[6] = 72 h, Table 2, average of phenotype and motility EC50, 72 h, read-out: Activity on schistosomula (EC50, μM - 72 h) Average
[7] = 72 h, Table 2, motility, 72 h, three replicate titrations (0.313–10 μM), read-out: Activity on schistosomula (EC50, μM - 72 h) M
[8] = 72 h, Table 2, phenotype, 72 h, three replicate titrations (0.313–10 μM), read-out: Activity on schistosomula (EC50, μM - 72 h) P
[9] = Table 4, Series A, read-out: Anti-schistosomal activity EC50 Schistosomula (μM) Motility
[10] = Table 4, Series A, read-out: Anti-schistosomal activity EC50 Schistosomula (μM) Phenotype
[11] = Table 4, Series A, read-out: Anti-schistosomal activity EC50 Adult (nM) Motility
[12] = Table 2, 72 h, titrations 0.0095–5 μM, WormassayGP2, read-out: Activity on adult worms (EC50, μM - 72 h) Motility
[13] = S. japonicum, one line per replicate

| Compound | EC50 [1, 6] [µM] | EC50 [1, 7] [µM] | EC50 [1, 8] [µM] | EC50 [1, 9] [µM] | EC50 [1, 10] [µM] | EC50 [2, 11] [nM] | EC50 [2, 12] [nM] | Effect on S. japonicum adult male worms [4] | SEVERITY SCORES 5 h ([4]; S. japonicum) | SEVERITY SCORES 24 h ([4]; S. japonicum, 24 h) | SEVERITY SCORES 48 h ([4]; S. japonicum) | DESCRIPTORS 48 h [4, 13] | SEVERITY SCORES 72 h ([4]; S. japonicum) | DESCRIPTORS 72 h [4, 13] | Effect on S. haematobium adult worms [5] | SEVERITY SCORES 5 h ([5]; S. haematobium) | SEVERITY SCORES 24 h ([5]; S. haematobium, 24 h) | SEVERITY SCORES 48 h ([5]; S. haematobium, 48 h) | SEVERITY SCORES 72 h ([5]; S. haematobium, 72 h) | other results |
| --- | --- | --- | --- | --- | --- | --- | --- | --- | --- | --- | --- | --- | --- | --- | --- | --- | --- | --- | --- | --- |
| O=[N+]([O-])c1ccc2nc(Nc3cc(C(F)(F)F)ccc3F)c(Nc3cc(C(F)(F)F)ccc3F)nc2c1 [Compound 33, N2, N3-bis(2-fluoro-5-(trifluoromethyl)phenyl)-6-nitroquinoxaline-2,3-diamine] | 0.15 | 0.15 | 0.15 | 0.15 | 0.15 | 5.6 | 5.6 | essentially lethal | 0 | 0 | 4 | Dying, deg | 4 | Dying, D | best activity | 0 | 2 | 3 | 4 | EC50 ([1]; 72 h, Table S7, motility, 95% CI in brackets, read-out: Activity on schistosomula (EC50, µM - 72 h) (95% CI) M): 0.15 µM; EC50 ([1]; 72 h, Table S7, phenotype, 95% CI in brackets, read-out: Activity on schistosomula (EC50, µM - 72 h) (95% CI) P): 0.15 µM; Effect on miracidia at 0.5 μM ([3]; 0.5 μM, lowest concentration tested): parasite death; Onset time on S. japonicum [4]: ≤ 24 h; DESCRIPTORS 24 h ([4]; S. japonicum, 24 h, one line per replicate): Dark, S, on sides; Onset time on S. haematobium [5]: ≤ 24 h; DESCRIPTORS 24 h ([5]; S. haematobium, 24 h, one line per replicate): S, on sides; also recorded: S, onsides; DESCRIPTORS 48 h ([5]; S. haematobium, 48 h, one line per replicate): S, dark on sides; DESCRIPTORS 72 h ([5]; S. haematobium, 72 h, one line per replicate): S, deg, on sides |
| O=[N+]([O-])c1ccc2nc(Nc3ccc(Cl)c(Cl)c3)c(Nc3ccc(Cl)c(Cl)c3)nc2c1 [Compound 22, N^2, N^3-bis(3,4-dichlorophenyl)-6-nitroquinoxaline-2,3-diamine] | 0.44 | 0.42 | 0.47 | 0.42 | 0.47 | 84.7 | 84.7 | decreased motility starting at 48 h | 0 | 0 | 1 and 2 | S and S, on sides | 2 | S+, on sides | mainly inactive | 0 | 0 | 0 | 0 | Activity on schistosomula in the primary screen at 10 μM ([1]; 10 μM, 72 h): retained activity; EC50 ([1]; 72 h, Table 1, 72 h, two dose response titrations (0.313–10 μM), 95% CI in brackets, read-out: Activity on schistosomula (EC50, μM - 72 h) Motility): 0.38 µM; EC50 ([1]; 72 h, Table 1, 72 h, two dose response titrations (0.313–10 μM), 95% CI in brackets, read-out: Activity on schistosomula (EC50, μM - 72 h) Phenotype): 0.4 µM; EC50 ([1]; 72 h, Table 1, mean of phenotype and motility EC50, 72 h, read-out: Activity on schistosomula (EC50, μM - 72 h) Average): 0.39 µM; EC50 ([1]; Table 3, read-out: Anti-schistosomal activity EC50 (μM) Schistosomula Motility): 0.42 µM; EC50 ([1]; Table 3, read-out: Anti-schistosomal activity EC50 (μM) Schistosomula Phenotype): 0.47 µM; EC50 ([1]; Table 5, Series C, read-out: Anti-schistosomal activity EC50 Schistosomula (μM) Motility): 0.42 µM; EC50 ([1]; Table 5, Series C, read-out: Anti-schistosomal activity EC50 Schistosomula (μM) Phenotype): 0.47 µM; EC50 ([1]; commercially sourced batch (c22), Fig. S7, read-out: EC50 on schistosomula, original commercially sourced compound): 0.61 µM; EC50 ([1]; re-synthesised batch (rs22), Fig. S7, read-out: EC50 on schistosomula, re-synthesised compound): 0.51 µM; Effect on adult worm motility at 3.15 μM ([2]; 3.15 μM, lowest concentration tested): complete cessation of worm mobility; also recorded: completely inhibited; Effect on adult worm motility at 12.5 and 6.25 μM ([2]; 12.5 and 6.25 μM): particularly active; EC50 ([2]; Table 3, read-out: Anti-schistosomal activity EC50 (μM) Adult Motility): 85 nM; EC50 ([2]; commercially sourced batch (c22), Fig. S7, read-out: EC50 on adult worms, original commercially sourced compound): 68.5 nM; EC50 ([2]; re-synthesised batch (rs22), Fig. S7, read-out: EC50 on adult worms, re-synthesised compound): 73.1 nM; Effect on miracidia at 5 μM ([3]; 5 μM in 1% DMSO): not lethal; Reduction of miracidia to sporocyst transformation at 5 μM compared to DMSO ([3]; 5 μM, 48 h): 50%; Miracidial transformation inhibition at 2 and 0.5 μM ([3]; 2 and 0.5 μM, 48 h): about 20%; Effect on miracidia at 10 and 50 μM ([3]; 10 and 50 μM, 48 h): lethal |
